Data on 1 compound can be found in EP2125023B1, “SOLUBLE FORMS OF INCLUSION COMPLEXES OF HISTONE DEACETYLASE INHIBITORS AND CYCLODEXTRINS, THEIR PREPARATION PROCESSES AND USES IN THE PHARMACEUTICAL FIELD” (Universita'Degli Studi di Roma "La Sapienza", priority 2007, dated 2008).

The nature of this data set: Solubility tests on SAHA in aqueous HPβCD solutions by UV spectrophotometry. The format is physicochemical. Particulars: for Concentration: dissolved SAHA in the filtered solution brought to 10 ml, by Lambert and Beer's law with mean ε; for Assorbance (AU): water, one week stirring at room temperature, filtered, brought to 10 ml, read at 240 nm. The method, then:
Five aqueous solutions of SAHA in cyclodextrin were prepared, maintaining a constant amount of drug and gradually increasing the cyclodextrin concentraion.
Two mg of SAHA (0.0075 mmol) are weighed in five assay tubes and to each is added 1 ml of a solution of 2-hydroxypropyl-β-cyclodextrin (HPβCD) in double-distilled water; we started with a molar ratio of 1:1 corresponding to 0.0116 g of cyclodextrin, proceeding then with molar ratios of 1:2 corresponding to 0.0232 g, 1:3 corresponding to 0.035 g, 1:4 corresponding to 0.046, up to a final ratio of 1:5, corresponding to 0.058 g of cyclodextrin.
The tubes thus prepared and well sealed are left for one week under stirring in a mechanical stirrer at room temperature.
At the end of this period, the solutions are filtered with a 0.5 µm diameter membrane filter in five 10 ml round-bottomed flasks brought to volume with double-distilled water, and the spectrophotometric readings are taken at 240 nm.
From the mean value of ε calculated previously, and using Lambert and Beer's law, the millimolar concentrations of the five solutions can be calculated, as shown in the table.

Take `O=C(CCCCCCC(=O)Nc1ccccc1)NO` [SAHA, suberoylanilide hydroxamic acid]: the “Concentration” value came out at 126 µM (SAHA:HPβCD molar ratio 1:1); 191 µM (SAHA:HPβCD molar ratio 1:2); 196 µM (SAHA:HPβCD molar ratio 1:3); 207 µM (SAHA:HPβCD molar ratio 1:4); 216 µM (SAHA:HPβCD molar ratio 1:5). In addition, the “Assorbance (AU)” value by setting is: (SAHA:HPβCD molar ratio 1:1) 1.6862 AU; (SAHA:HPβCD molar ratio 1:2) 2,5591 AU; (SAHA:HPβCD molar ratio 1:3) 2.6196 AU; (SAHA:HPβCD molar ratio 1:4) 2.7752 AU; (SAHA:HPβCD molar ratio 1:5) 2.8932 AU.
